The values below come from ChEMBL document CHEMBL4321815, “Discovery of an Extremely Potent Thiazine-Based β-Secretase Inhibitor with Reduced Cardiovascular and Liver Toxicity at a Low Projected Human Dose” (J Med Chem, 2019).

Series [1] has as its system Canis familiaris. Briefly: In vivo inhibition of BACE1 in po dosed Beagle dog assessed as plasma level causing 50% reduction in amyloidbeta42 level in CSF administered as single dose measured after 4 to 49 hrs. The series is classed as functional, organism-based. To be noted: Canis lupus familiaris.
For series [2], the system named is Homo sapiens. Briefly: In vivo inhibition of BACE1 in human assessed as reduction in amyloidbeta level at 75 mg administered once daily relative to control. The series is classed as functional.
The species entered for series [3] is Canis familiaris. The series is described as follows: animal or person. The class given is functional, organism-based. The note with it: Canis lupus familiaris, Beagle.
Series [4] has as its system Homo sapiens. The series is described as follows: In vivo inhibition of BACE1 in human assessed as reduction in amyloidbeta level at 30 mg administered once daily after 14 days MSD electrochemiluminescent immunoassay relative to control. The series is classed as functional.
Series [5] in a line: Hepatotoxicity in Beagle dog assessed as increase in alanine aminotransferase level at 50 mg/kg/day, po administered for 2 weeks. The class given is toxicity, organism-based, Canis lupus familiaris. To be noted: in vivo, 336 h.
A short description of series [6]: Hepatotoxicity in po dosed Beagle dog assessed as induction of inflammatory cell infiltration of centrilobular hepatocytes at highest dose administered for 2 weeks. The class given is toxicity, organism-based, Canis lupus familiaris. To be noted: in vivo, 336 h.

Consider `C[C@H]1OC[C@]2(c3cc(NC(=O)c4cnc(C(F)F)cn4)ccc3F)N=C(N)SC[C@H]12` [ELENBECESTAT], for which the half-maximal effective concentration (EC50) was 22 nM with Canis familiaris [1] and 8.1 nM in the series filed under Canis familiaris [3]. For the same molecule, the “inhibition (INH)” value with Homo sapiens [2] is recorded as 80%.

Turning to `C[C@@]1(c2cc(NC(=O)c3ccc(C#N)cn3)ccc2F)C=CSC(N)=N1` [ATABECESTAT], the “inhibition (INH)” value with Homo sapiens [4] is listed as 80%. Moreover, the Activity result in series [5] and in series [6] was “Toxic” throughout.
